Data as given in patent US11369688B2, “Hybrid telodendrimers” (THE REGENTS OF THE UNIVERSITY OF CALIFORNIA, priority 2016, dated 2022).

Assay: Visual observation of drug-loaded crosslinked PEG5K-(Ahx-(NAc-Cys))4/CA4 nanocarriers
Assay type: physicochemical
Settings: 1 mg drug/10 mg PEG5K-(Ahx-(NAc-Cys))4/CA4, crosslinked; effective concentration 2 mg drug/20 mg polymer per ml PBS

| Structure (SMILES) | Observation |
| --- | --- |
| CO[C@H]1C(=O)[C@]2(C)[C@@H](OC)C[C@H]3OC[C@@]3(OC(C)=O)[C@H]2[C@H](OC(=O)c2ccccc2)[C@]2(O)C[C@H](OC(=O)[C@H](O)[C@@H](NC(=O)OC(C)(C)C)c3ccccc3)C(C)=C1C2(C)C [Cabazitaxel, cabazitaxel] | Clear solution |
| CC(=O)O[C@@]12CO[C@@H]1C[C@H](O)[C@@]1(C)C(=O)[C@H](O)C3=C(C)[C@@H](OC(=O)[C@H](O)[C@@H](NC(=O)OC(C)(C)C)c4ccccc4)C[C@@](O)([C@@H](OC(=O)c4ccccc4)[C@H]21)C3(C)C [Docetaxel, docetaxel] | Clear solution |
| COc1cccc2c1C(=O)c1c(O)c3c(c(O)c1C2=O)C[C@@](O)(C(=O)CO)C[C@@H]3O[C@H]1C[C@H](N)[C@H](O)[C@H](C)O1 [Doxorubicin] | Clear solution |
| CCc1c2c(nc3ccc(O)cc13)-c1cc3c(c(=O)n1C2)COC(=O)[C@]3(O)CC [SN-38] | Huge precipitate |
| CC[C@]1(O)C[C@@H]2CN(CCc3c([nH]c4ccccc34)[C@@](C(=O)OC)(c3cc4c(cc3OC)N(C)[C@H]3[C@@](O)(C(=O)OC)[C@H](OC(C)=O)[C@]5(CC)C=CCN6CC[C@]43[C@@H]65)C2)C1 [Vinblastine] | Clear |
